Results as given in patent US20230042936A1, “PYRIDO[2,3-d]PYRIMIDIN-7(8H)-ONES AS CDK INHIBITORS” (PROSENESTAR LLC, priority 2020, published 2023).
pIC50: −log10 of the molar value. “Also recorded” adds a separate entry of the source. Where two headings read alike, the source gives them in different places.

Assays:
[1] = Metabolic stability in hepatocytes; assay type: in vitro ADME; details: human, 60-90 min test; for hepatocyte CLint: read-out: Metabolic stability, Human hepatocytes: Clearance; for half-life: read-out: Metabolic stability, Human hepatocytes: t1/2
[2] = molecular target: CDK4/CycD3 (Homo sapiens, UniProt P11802); test: Kinase profiling; assay type: biochemical; details: 10 semi-logarithmic dilutions from 50 μM, singlicate
Chain of CDK4/CycD3 (P11802 whole entry): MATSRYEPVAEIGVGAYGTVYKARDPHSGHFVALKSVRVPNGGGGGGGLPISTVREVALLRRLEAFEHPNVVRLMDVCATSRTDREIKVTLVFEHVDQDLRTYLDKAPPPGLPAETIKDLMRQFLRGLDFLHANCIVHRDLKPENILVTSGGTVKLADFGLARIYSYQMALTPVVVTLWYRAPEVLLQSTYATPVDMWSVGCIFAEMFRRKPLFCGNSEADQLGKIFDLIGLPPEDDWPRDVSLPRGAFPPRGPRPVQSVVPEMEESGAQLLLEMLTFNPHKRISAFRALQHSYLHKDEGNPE
Chain of CDK4/CycD3 (P30281 whole entry partner): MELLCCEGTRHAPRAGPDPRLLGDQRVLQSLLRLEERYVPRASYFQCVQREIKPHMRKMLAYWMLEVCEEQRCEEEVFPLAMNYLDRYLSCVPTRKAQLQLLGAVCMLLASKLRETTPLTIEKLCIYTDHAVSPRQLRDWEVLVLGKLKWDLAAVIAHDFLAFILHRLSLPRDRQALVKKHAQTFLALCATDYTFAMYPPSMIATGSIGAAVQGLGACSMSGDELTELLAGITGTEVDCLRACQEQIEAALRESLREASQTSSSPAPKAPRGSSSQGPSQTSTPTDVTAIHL

[3] = molecular target: CDK3/CycC (Homo sapiens, UniProt Q00526); test: Kinase profiling; assay type: biochemical; details: 10 semi-logarithmic dilutions from 50 μM, singlicate
[4] = molecular target: CDK2/CycA2 (Homo sapiens, UniProt P24941); test: Kinase profiling; assay type: biochemical; details: 10 semi-logarithmic dilutions from 50 μM, singlicate
[5] = Kinetic solubility (pH 7.4); assay type: physicochemical; details: pH 7.4, aqueous buffer, kinetic from dmso stock
[6] = test system: Cdk2/4/6_KO MEFs; test: Cell growth in Cdk-deficient MEFs; assay type: cell-based, mouse; details: relative cell count day 6 versus day 3; FIG. 4
Experimental: (§1) Cdk-deficient MEFs were plated in 10-cm dish in triplicate (100,000/well) and treated with the selected compounds at the indicated concentration, based on GI50 previously determined in the MDA-MB-231 cell line. Cells were counted in an optical microscope 3 and 6 days after treatment to estimate the relative cell growth in each condition.
(§2) To further investigate the relative functional dependence of the subject compounds on CDK2 versus CDK4 or CDK6, the specific effects of PS004, PS006 and PS009 were tested on CDK-deficient mouse embryonic fibroblasts (MEFs) obtained from Cdk2 knock out, Cdk4; Cdk6-double knock out and Cdk2; Cdk4; Cdk6-triple knock out mouse models.

[7] = test system: Cdk4/6_KO MEFs; test: Cell growth in Cdk-deficient MEFs; assay type: cell-based, mouse; details: relative cell count day 6 versus day 3; FIG. 4
Experimental: as §1, §2

[8] = test system: MDA-MB-231 human breast cancer cells; test: Cell cycle analysis (DNA content, flow cytometry); assay type: cell-based; details: GI50 concentration; FIG. 1
Experimental: FIG. 1 depicts DNA content profiles of MDA-MB-231 human breast cancer cells treated with subject compounds or commercial CDK inhibitors, showing the percentage of cells at the different cell cycle phases after 48 hours of the treatments indicated. (n=6 technical replicates).
Cells were collected by trypsinization, washed with PBS and fixed with cold 70% ethanol. Cells were treated with 250 μg/ml RNase (Qiagen) for 30 minutes at 37° C. and stained with 10 μg/ml Propidium Iodide (Sigma). Cell cycle was analyzed by flow cytometry using a LSR Fortessa Analyzer. Cell cycle profiles were generated and analyzed with FlowJo software.
Cells were collected by tripsinization at several times after treatment with the indicated compounds and, then, fixed with cold 70% Ethanol. DNA content was determined by staining with propidium iodide (10 μg/ml, Sigma Aldrich). Data acquisition was performed with a LSR Fortessa analyzer (BD Biosciences) and analysed using FlowJo software.

[9] = molecular target: CDK4/CycD1 (Homo sapiens, UniProt P11802); test: Kinase profiling; assay type: biochemical; details: 10 semi-logarithmic dilutions from 50 μM, singlicate
Chain of CDK4/CycD1 (P11802 whole entry): as the sequence (P11802 whole entry) above
Chain of CDK4/CycD1 (P24385 whole entry partner): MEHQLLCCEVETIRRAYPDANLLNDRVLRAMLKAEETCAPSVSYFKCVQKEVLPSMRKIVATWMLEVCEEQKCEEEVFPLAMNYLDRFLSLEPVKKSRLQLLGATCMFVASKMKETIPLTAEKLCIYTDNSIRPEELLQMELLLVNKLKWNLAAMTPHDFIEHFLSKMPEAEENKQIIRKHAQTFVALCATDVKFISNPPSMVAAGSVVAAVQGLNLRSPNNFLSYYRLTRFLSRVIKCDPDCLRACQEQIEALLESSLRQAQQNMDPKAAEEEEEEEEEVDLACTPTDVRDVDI

[10] = molecular target: CDK8/CycC (Homo sapiens, UniProt P49336); test: Kinase profiling; assay type: biochemical; details: 10 semi-logarithmic dilutions from 50 μM, singlicate
Chain of CDK8/CycC (P49336 whole entry): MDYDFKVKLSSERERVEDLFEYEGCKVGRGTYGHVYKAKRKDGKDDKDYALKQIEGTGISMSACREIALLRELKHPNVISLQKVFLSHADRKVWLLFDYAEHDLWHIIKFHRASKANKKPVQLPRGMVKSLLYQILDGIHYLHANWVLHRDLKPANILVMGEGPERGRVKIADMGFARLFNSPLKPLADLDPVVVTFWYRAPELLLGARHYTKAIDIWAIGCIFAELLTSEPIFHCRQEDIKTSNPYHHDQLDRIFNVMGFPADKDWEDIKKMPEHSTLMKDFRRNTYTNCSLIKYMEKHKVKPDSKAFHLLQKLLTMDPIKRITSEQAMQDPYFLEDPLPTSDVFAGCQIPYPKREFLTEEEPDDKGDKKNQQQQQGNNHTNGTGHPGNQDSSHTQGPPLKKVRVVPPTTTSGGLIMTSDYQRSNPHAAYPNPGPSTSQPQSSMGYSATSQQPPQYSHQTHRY
Chain of CDK8/CycC (P24863 whole entry partner): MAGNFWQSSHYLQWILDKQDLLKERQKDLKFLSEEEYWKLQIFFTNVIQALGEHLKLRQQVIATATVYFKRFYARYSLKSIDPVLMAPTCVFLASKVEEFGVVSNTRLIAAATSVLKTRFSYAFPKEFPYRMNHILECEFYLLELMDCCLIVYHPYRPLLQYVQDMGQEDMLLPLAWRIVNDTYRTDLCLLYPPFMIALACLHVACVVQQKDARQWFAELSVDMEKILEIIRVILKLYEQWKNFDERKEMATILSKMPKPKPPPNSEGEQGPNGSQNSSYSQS

[11] = molecular target: CDK1/CycA2 (Homo sapiens, UniProt P06493); test: Kinase profiling; assay type: biochemical; details: 10 semi-logarithmic dilutions from 50 μM, singlicate
Chain of CDK1/CycA2 (P06493 whole entry): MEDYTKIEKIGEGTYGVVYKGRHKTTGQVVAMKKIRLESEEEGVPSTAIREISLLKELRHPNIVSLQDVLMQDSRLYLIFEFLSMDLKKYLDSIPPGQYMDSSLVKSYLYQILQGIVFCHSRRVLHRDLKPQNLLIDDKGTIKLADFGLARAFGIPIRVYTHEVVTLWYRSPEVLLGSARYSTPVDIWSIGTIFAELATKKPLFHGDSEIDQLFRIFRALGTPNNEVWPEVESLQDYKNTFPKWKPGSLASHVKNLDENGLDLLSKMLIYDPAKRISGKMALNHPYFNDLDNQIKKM
Chain of CDK1/CycA2 (P20248 whole entry partner): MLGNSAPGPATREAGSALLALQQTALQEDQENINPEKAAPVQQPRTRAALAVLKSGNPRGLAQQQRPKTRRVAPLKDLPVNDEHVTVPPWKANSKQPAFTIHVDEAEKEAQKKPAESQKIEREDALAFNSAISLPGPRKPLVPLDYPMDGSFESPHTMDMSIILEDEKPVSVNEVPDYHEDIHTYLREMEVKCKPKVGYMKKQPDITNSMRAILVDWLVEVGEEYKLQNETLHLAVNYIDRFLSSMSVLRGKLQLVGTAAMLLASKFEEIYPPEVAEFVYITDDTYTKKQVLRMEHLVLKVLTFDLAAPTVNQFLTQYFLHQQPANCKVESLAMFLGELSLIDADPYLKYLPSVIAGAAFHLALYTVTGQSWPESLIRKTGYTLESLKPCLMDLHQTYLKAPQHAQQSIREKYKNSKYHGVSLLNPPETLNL

[12] = Metabolic stability in microsomes; assay type: in vitro ADME; details: mouse, 60-90 min test; for microsomal CLint: read-out: Metabolic stability, Mouse microsomes: Clearance; for half-life: read-out: Metabolic stability, Mouse microsomes: t1/2
[13] = Summary of solubility, metabolic stability and permeability
[14] = molecular target: CDK5/p25NCK (Homo sapiens, UniProt Q00535); test: Kinase profiling; assay type: biochemical; details: 10 semi-logarithmic dilutions from 50 μM, singlicate
Chain of CDK5/p25NCK (Q00535 whole entry): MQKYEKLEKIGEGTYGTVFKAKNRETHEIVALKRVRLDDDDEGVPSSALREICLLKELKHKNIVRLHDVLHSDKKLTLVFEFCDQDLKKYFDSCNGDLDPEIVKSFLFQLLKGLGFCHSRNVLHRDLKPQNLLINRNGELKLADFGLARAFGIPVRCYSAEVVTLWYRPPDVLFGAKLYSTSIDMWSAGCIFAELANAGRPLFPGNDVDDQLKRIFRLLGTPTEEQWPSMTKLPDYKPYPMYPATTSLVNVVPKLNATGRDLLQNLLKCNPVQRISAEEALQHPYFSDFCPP
Chain of CDK5/p25NCK (Q15078 99-307 partner limits assumed): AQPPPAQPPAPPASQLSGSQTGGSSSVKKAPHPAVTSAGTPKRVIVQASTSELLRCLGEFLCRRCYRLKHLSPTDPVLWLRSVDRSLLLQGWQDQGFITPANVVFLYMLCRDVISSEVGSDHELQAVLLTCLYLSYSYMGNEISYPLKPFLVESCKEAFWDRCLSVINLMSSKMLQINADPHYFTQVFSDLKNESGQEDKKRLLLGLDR

[15] = molecular target: CDK19/CycC (Homo sapiens, UniProt Q9BWU1); test: Kinase profiling; assay type: biochemical; details: 10 semi-logarithmic dilutions from 50 μM, singlicate
Chain of CDK19/CycC (Q9BWU1 whole entry): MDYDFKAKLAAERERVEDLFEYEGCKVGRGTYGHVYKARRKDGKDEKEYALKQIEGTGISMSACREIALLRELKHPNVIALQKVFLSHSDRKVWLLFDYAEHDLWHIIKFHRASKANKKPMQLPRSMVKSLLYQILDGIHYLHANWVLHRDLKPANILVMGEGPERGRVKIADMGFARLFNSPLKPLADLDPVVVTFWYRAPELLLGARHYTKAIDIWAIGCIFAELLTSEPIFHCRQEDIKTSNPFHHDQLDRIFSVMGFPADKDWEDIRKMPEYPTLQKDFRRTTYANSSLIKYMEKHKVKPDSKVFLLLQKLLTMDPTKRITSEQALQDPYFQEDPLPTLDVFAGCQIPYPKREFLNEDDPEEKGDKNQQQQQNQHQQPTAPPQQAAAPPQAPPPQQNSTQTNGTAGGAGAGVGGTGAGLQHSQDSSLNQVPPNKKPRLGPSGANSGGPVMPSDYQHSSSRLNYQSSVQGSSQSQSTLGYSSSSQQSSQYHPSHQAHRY
Chain of CDK19/CycC (P24863 whole entry partner): as the sequence (P24863 whole entry partner) above

[16] = molecular target: PIM1 (Homo sapiens, UniProt P11309); test: Kinase profiling; assay type: biochemical; details: 10 semi-logarithmic dilutions from 50 μM, singlicate
[17] = test system: pRB-wild-type and pRB-deficient glioblastoma cells (U87MG, SW1783); test: GI50 compared in pRB-wild-type and pRB-deficient cells; assay type: cell-based, human; details: comparison of GI50, Table 4
Experimental: […]. Cell counts were determined by the Opera software (Perkin Elmer) and data were further processed with SPSS software. GI50 was calculated by estimating the absolute IC50 using dose-response inhibition tool in Prism6 (Graphpad Software Inc.).
CDK4/6 kinases drive cell cycle progression by phosphorylating the retinoblastoma protein (pRB), thus, releasing its repressive activity on transcription. Accordingly, CDK4/6 specific inhibitors are inefficient in pRB-deficient cells, as cell cycle transcription is induced with independence of CDK4/6 activity. The subject compounds were therefore evaluated to what extent depend on the presence of a functional pRB. Two pairs of human cancer cell lines representing pRB-wild-type and pRB-deficient breast cancer and glioblastoma were tested. […].

[18] = Thermodynamic solubility (pH 7.4); assay type: physicochemical; details: pH 7.4, aqueous buffer, thermodynamic from solid
[19] = molecular target: HIPK2 (Homo sapiens, UniProt Q9H2X6); test: Kinase profiling; assay type: biochemical; details: 10 semi-logarithmic dilutions from 50 μM, singlicate; read-out: IC50 HIPK2
Chain of HIPK2 (Q9H2X6 whole entry): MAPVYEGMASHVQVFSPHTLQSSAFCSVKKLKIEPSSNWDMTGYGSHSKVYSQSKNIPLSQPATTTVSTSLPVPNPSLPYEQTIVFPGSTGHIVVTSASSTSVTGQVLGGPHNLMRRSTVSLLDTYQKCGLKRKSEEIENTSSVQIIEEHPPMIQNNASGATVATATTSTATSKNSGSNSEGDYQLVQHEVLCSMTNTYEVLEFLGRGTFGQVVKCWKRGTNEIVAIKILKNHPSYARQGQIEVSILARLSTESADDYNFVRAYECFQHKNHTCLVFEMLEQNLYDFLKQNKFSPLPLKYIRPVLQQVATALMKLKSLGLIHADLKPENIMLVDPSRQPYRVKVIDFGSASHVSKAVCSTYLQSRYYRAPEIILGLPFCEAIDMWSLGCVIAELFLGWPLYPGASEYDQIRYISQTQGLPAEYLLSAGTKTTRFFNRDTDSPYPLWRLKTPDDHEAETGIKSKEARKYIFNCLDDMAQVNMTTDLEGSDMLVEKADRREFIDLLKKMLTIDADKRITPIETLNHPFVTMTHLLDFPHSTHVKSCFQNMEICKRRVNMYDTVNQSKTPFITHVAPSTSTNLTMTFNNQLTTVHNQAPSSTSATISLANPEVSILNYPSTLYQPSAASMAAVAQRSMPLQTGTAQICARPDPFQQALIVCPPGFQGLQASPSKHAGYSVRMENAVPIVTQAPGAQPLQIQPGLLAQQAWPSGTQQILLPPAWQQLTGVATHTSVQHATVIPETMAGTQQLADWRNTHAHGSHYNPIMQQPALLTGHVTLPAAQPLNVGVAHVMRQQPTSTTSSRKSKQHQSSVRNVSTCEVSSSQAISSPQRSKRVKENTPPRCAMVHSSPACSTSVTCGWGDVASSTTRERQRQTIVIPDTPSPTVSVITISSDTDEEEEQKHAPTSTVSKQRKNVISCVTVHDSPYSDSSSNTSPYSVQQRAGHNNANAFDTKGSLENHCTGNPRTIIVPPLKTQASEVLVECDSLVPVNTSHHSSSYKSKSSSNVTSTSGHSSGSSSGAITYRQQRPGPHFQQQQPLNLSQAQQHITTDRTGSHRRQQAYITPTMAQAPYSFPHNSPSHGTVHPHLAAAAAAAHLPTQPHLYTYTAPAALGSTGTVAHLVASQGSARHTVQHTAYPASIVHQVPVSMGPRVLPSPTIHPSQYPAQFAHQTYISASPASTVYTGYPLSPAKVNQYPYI

[20] = test system: Caco-2 cells; test: Permeability Caco-2 cells; assay type: in vitro ADME
[21] = Permeability Caco-2 cells; assay type: in vitro ADME; details: human, Caco-2
[22] = Metabolic stability in hepatocytes; assay type: in vitro ADME; details: mouse, 60-90 min test; for hepatocyte CLint: read-out: Metabolic stability, Mouse heptocytes: Clearance; for half-life: read-out: Metabolic stability, Mouse heptocytes: t1/2
[23] = molecular target: CDK7/CycH/MAT1 (Homo sapiens, UniProt P50613); test: Kinase profiling; assay type: biochemical; details: 10 semi-logarithmic dilutions from 50 μM, singlicate
[24] = test system: MDA-MB-231 cells; test: Senescence assay (β-Galactosidase staining); assay type: cell-based, human; details: at GI50; 3 days or 14 days exposure; FIGS. 2 and 3
Experimental: MDA-MB-231 cells were seeded in 6-well plates (65,000 cells/well) and treated with the selected compounds at their respective GI50. At 3, 7 and 14 days after treatment cells were stained with Senescence β-Galactosidase Staining Kit (Cell Signaling) at 37° C. overnight. Blue coloured senescent cells were counted with an optical microscope. Medium and compounds were refreshed every 3 days.
Cell cycle arrest can be irreversible in case of senescence induction.

| SMILES | hepatocyte CLint [1] [µL/min/1e6 cells] | half-life [1] [min] | pIC50 [2] | pIC50 [3] | pIC50 [4] | solubility kinetic [5] [µM] | cell proliferation of Cdk2; Cdk4; Cdk6-triple knock out MEFs [6] | cell proliferation of Cdk4; Cdk6-double knock out MEFs [7] | cell cycle arrest by DNA content [8] | pIC50 [9] | pIC50 [10] | pIC50 [11] | microsomal CLint [12] [µL/min/mg] | half-life [12] [min] | Summary: permeability [13] | Summary: solubility [13] | pIC50 [14] | pIC50 [15] | pIC50 [16] | efficiency in pRB-deficient versus pRB-wild-type glioblastoma cells [17] | further results |
| --- | --- | --- | --- | --- | --- | --- | --- | --- | --- | --- | --- | --- | --- | --- | --- | --- | --- | --- | --- | --- | --- |
| CC(O)CCC1CCN(c2ccc(Nc3ncc4ccc(=O)n([C@@H]5CC6CCC5C6)c4n3)cc2)CC1 (stereo partly drawn) [PS004, 8-((2R)-bicyclo[2.2.1]heptan-2-yl)-2-((4-(4-(3-hydroxybutyl)piperidin-1-yl)phenyl)amino)pyrido[2,3-d]pyrimidin-7(8H)-one] | < 6.4 | > 217 | 6.91 | 5.68 | 6.35 | < 1 | efficient in preventing cell proliferation | efficient in preventing cell proliferation | accumulation of cells both in G1 and G2/M phases; also recorded: arresting cells in G1/G2/M cell cycle phases | 7.45 | 6.79 | 4.84 | 54.5 | 25.4 | Low | Insoluble, | 5.36 | 5.02 | < 4.30 | more inefficient | Summary: stability [13]: Stable; solubility thermodynamic [18]: < 2 µM; pIC50 [19]: < 4.30; Permeability Caco-2 cells: Permeability, grade in words [20]: (low); Papp [21]: < 0.44 ×10⁻⁶ cm/s; hepatocyte CLint [22]: 9.7 µL/min/1e6 cells; half-life [22]: 143 min; pIC50 [23]: 4.66 |
| CC(O)COC1CCN(c2ccc(Nc3ncc4ccc(=O)n([C@@H]5CC6CCC5C6)c4n3)cc2)CC1 (stereo partly drawn) [PS006, 8-((2R)-bicyclo[2.2.1]heptan-2-yl)-2-((4-(4-(2-hydroxypropoxy)piperidin-1-yl)phenyl)amino)pyrido[2,3-d]pyrimidin-7(8H)-one] | 49 | 28.3 | 7.33 | 6.05 | 6.69 | < 1 | efficient in preventing cell proliferation | efficient in preventing cell proliferation | induced G2/M arrest; also recorded: arrested cells in G2/M phases | 7.72 | 6.99 | 5.37 | 185 | 7.5 | High | insoluble; also recorded: Insoluble, | 5.84 | 5.38 | < 4.30 | equally efficient | Summary: efflux [13]: permeable/No; Summary: stability [13]: highly unstable; solubility thermodynamic [18]: < 2 µM; pIC50 [19]: 4.83; SA-βGAL staining (senescence induction) [24]: induced high levels of SA-βGAL staining; also recorded: induced high senescence; Permeability Caco-2 cells: Efflux, grade in words [20]: (poor); Permeability Caco-2 cells: Permeability, grade in words [20]: (high); Papp [21]: 4.62 ×10⁻⁶ cm/s; hepatocyte CLint [22]: 75.7 µL/min/1e6 cells; half-life [22]: 18.3 min; pIC50 [23]: 5.10 |
| CC(=O)c1c(C)c2cnc(Nc3ccc(N4CCC(CCCO)CC4)cc3)nc2n(C2CCCC2)c1=O [PS009, 6-acetyl-8-cyclopentyl-2-((4-(4-(3-hydroxypropyl)piperidin-1-yl)phenyl)amino)-5-methylpyrido[2,3-d]pyrimidin-7(8H)-one] | 41.7 | 33.3 | 7.26 | 5.12 | 6.11 | < 1 | efficient in preventing cell proliferation | efficient in preventing cell proliferation | induced accumulation of cells in G0/G1; also recorded: arrested cells predominantly in G1 | 7.59 | < 4.30 | < 4.30 | 46.9 | 29.5 | Low | insoluble; also recorded: Insoluble, | 5.31 | 4.44 | < 4.30 | equally efficient | solubility thermodynamic [18]: < 2 µM; pIC50 [19]: < 4.30; SA-βGAL staining (senescence induction) [24]: induced high levels of SA-βGAL staining; also recorded: very high SA-BGAL activity induction; Permeability Caco-2 cells: Permeability, grade in words [20]: (low); Papp [21]: < 0.43 ×10⁻⁶ cm/s; hepatocyte CLint [22]: 67.8 µL/min/1e6 cells; half-life [22]: 20.4 min; pIC50 [23]: 4.51 |
